Test results taken from paper PMC12055641, “The Study of Antistaphylococcal Potential of Omiganan and Retro-Omiganan Under Flow Conditions” (Probiotics and Antimicrobial Proteins, 2024).
Where “and” joins values, the source holds several entries; their conditions need not be identical. Equal entries are not always repeated. No end group written: not given here.

Columns and labels:
[1] = incubation with human skin S9 protease; cited from earlier work
[2] = test system: S. aureus ATCC 33591 (MRSA); assay: Biofilm formation in peptide-coated PDMS channels under flow; assay type: cell-based, Staphylococcus aureus; conditions: peptide co-immobilized on pDa-coated PDMS channel, 24 h flow
Protocol: (§1) Formation of the biofilm inside the PDMS flow chambers was performed using three peristaltic pumps working simultaneously (LP-pump, Kamush, Lipopharm, Poland) and sterile Tygon® 3350 silicone hoses (2.4 × 0.8 × 0.8 mm) with a length of 30 and 50 cm for inlet and outlet, respectively. Bacterial suspensions were prepared (0.5 × 10^7 CFU/mL) in sterile 50-mL test tubes, which were placed in a heating block at 37 °C. Before experiments, all channels were assessed for tightness and sterilized using a 70% 2-propanol solution (10 min, flow rate 1 mL/min) and rinsed with sterile PBS solution (10 min, flow 0.1 mL/min). The formation of biofilm inside the channels was divided into three stages: (1) adhesion—at this stage S. aureus suspensions were passed through the channels for 4 h at a flow rate of 0.1 mL/min; (2) rinsing—the previously used hoses were replaced with new sterile ones, and the channels were rinsed with sterile PBS solution for 10 min at a flow rate of 0.1 mL/min; (3) biofilm growth—after flushing the channels, the silicone hoses were placed in tubes with MHB medium, which was passed through the channels for 24 h at a flow rate of 0.1 mL/min. All experiments included growth and sterility controls.
(§2) Incorporation of omiganan and retro-omiganan into PDMS channels was conducted using a polydopamine (pDa) coating, as previously described with a slight modification resulting from flow-based experimental model. To do this, the pDa coating was done by rinsing the channels with a solution of dopamine hydrochloride (Sigma-Aldrich, 2 mg/mL) in 10 mM bicin buffer (pH 8.5) for 18 h, 0.3 mL/min in a closed system (Fig. 3A). Then, the channels were rinsed with a sterile solution of demineralized water. Further co-immobilization was conducted using new, sterile silicone hoses connected to flow chambers and test tubes containing aqueous solutions of the peptides (100 µg/mL) pumped through the channels in a closed system for 6 h at 0.3 mL/min (Fig. 3B). Assessment of peptide binding was performed using liquid chromatography (RP-HPLC), by comparing the content of the compounds in the solution before and after incorporation. Waters Alliance e2695 system with a Waters 2998 PDA Detector (software-Empower 3, Waters, Milford, MA, USA) was used. All analyses were carried out on a Waters X-Bridge Shield RP-18 column (3.0 × 100 mm, 3.5 μm particle size, 130 Å pore size) with UV detection at 214 nm and samples (10 μL) were eluted with a linear 10–90% acetonitrile gradient in deionized water over 15 min at 25.0 ± 0.1 °C. The mobile phase flow rate was 0.5 mL/min. Both eluents contained 0.1% (v/v) of TFA. Each peptide sample was analyzed in triplicate. Such functionalized PDMS channels were used for further studies on biofilm formation. […]

[3] = test system: S. aureus ATCC 25923; assay: as above; assay type: cell-based, Staphylococcus aureus; conditions: peptide co-immobilized on pDa-coated PDMS channel, 24 h flow
Protocol: as §1, §2

[4] = test system: mupirocin-resistant MRSA strains; design: method as in PMID 28581672; conditions: all mupirocin-resistant MRSA strains analyzed; cited from earlier work

Substance: ILRWPWWPWRRK-NH2 [Omiganan]
- half-life [1]: ca. 10 min
- reduction of bacteria forming biofilm relative to control [2]: 98%
- reduction of bacteria forming biofilm relative to control [3]: 71%
- MIC [4]: 12.5 µM and 22.7 µg/mL

Substance: KRRWPWWPWRLI-NH2 [Retro-Omiganan]
- reduction of bacteria forming biofilm relative to control [2]: 96%
- reduction of bacteria forming biofilm relative to control [3]: 81%
